Measurements from ChEMBL document CHEMBL2073977, “Endotoxin downregulates rat hepatic ntcp gene expression via decreased activity of critical transcription factors” (J Clin Invest, 1998).

Assays:
[1] = molecular target: T1, Hepatic sodium/bile acid cotransporter (Rattus norvegicus, UniProt P26435); assay: TP_TRANSPORTER: Northern blot in vivo, liver of SD rat; format: functional, organism-based, Sprague-Dawley
T1 sequence (P26435 whole entry): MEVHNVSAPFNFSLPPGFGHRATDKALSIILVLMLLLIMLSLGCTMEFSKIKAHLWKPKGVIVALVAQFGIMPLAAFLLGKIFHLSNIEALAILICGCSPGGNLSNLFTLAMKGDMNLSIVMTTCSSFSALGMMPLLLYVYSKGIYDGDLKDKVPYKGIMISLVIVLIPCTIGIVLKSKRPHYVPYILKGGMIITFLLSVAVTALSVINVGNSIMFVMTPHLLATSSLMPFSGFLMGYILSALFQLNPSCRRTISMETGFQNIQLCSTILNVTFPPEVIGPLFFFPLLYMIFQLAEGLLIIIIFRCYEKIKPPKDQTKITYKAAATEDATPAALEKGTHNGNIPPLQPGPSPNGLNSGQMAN

[2] = molecular target: T1, Hepatic sodium/bile acid cotransporter; assay: TP_TRANSPORTER: Western in vivo, liver of SD rat; format: functional, organism-based, Sprague-Dawley

Activity [1]: inducer [Decrease]
Activity [2]: inducer [Decrease]
SMILES: CCCCCCCCCCCCCC(=O)OC(CCCCCCCCCCC)CC(=O)OC1C(NC(=O)CC(CCCCCCCCCCC)OC(=O)CCCCCCCCCCC)C(OC2CC(OC(=O)CC(O)CCCCCCCCCCC)C(NC(=O)CC(O)CCCCCCCCCCC)C(O)O2)OC(CO)C1OP(=O)(O)O (configuration not stated)
